# Reference: PubChem BioAssay (NCI)
# Several values for one entry are separate records, joined by “and”; a condition that tells them apart may be missing. Equal values may be shown once.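 Dose response: 5 concentrations. Exposure: 48 h. Format: 96-well plates. Endpoint: linear interpolation; highest concentration if not reached. The concentration for 50% growth inhibition is given as GI50. TGI marks complete inhibition of growth.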
# Test system: 786-0 renal
# Assay: NCI tumour cell line growth inhibition, 48 h
SMILES,GI50,TGI
O=S(=O)(NC1=NCCN1C(=S)SN1CCn2c1nsc2=S)c1ccc(Br)cc1,31 µM,> 100 µM
CC(=O)N[C@H]1C=C[C@@H]2/C=C(C)/C=C/[C@@H](C)[C@H]([C@H](C)[C@H](O)[C@@H](C)NC(C)=O)OC(=O)/C=C/C=C(C)\C=C\[C@]2(C)C1,0.0242 µM and 0.0045 µM,4.65 µM and > 45 µM
O=C1c2ccccc2-c2c1c1ccccc1c(=O)n2CCCNCCCn1ccnc1,0.352 µM,2.24 µM
CC1=C(C(=O)Nc2ccccc2C)C(c2ccc(Cl)c(Cl)c2)C(C(=O)Nc2ccccc2C)=C(C)N1,,67.3 µM
ClCc1cccc(Cn2cnc3c(NC45CC6CC(CC(C6)C4)C5)ncnc32)c1,3.43 µM,25.8 µM
O=c1c2cc(Cl)ccc2oc2ccc(OCCCCCN3CCCCC3)cc12,5.91 µM,12.5 µM
Cc1cc(I)cc(CN(C)CCCN2CCSCC2)c1O,21.2 µM,53.3 µM
Cc1[nH]c2ccccc2c1C1Cc2ccccc2N1C(=O)/C=C\C(=O)O (configuration not stated),,> 100 µM
O=C1c2ccccc2C(=O)N1CCCSc1ccccc1,,> 100 µM
CCOC(=O)Nc1nc2ccc(Cn3cccc3)cc2[nH]1,,> 100 µM
COc1cc(Nc2nccc(Nc3ccc4c(C)[nH]nc4c3)n2)cc(OC)c1OC,2.93 µM,9.7 µM
COc1ccc(/C=N\NC(=O)CN2CCN(c3cc4c(cc3F)c(=O)c(C(=O)N/N=C/c3ccc(OC)c(OC)c3)cn4C3CC3)CC2)cc1OC,4.83 µM,22.6 µM

# Test system: SNB-75 CNS
# Assay: NCI tumour cell line growth inhibition, 48 h
SMILES,GI50,TGI [µM]
O=S(=O)(NC1=NCCN1C(=S)SN1CCn2c1nsc2=S)c1ccc(Br)cc1,44.5 µM,> 100
CC(=O)N[C@H]1C=C[C@@H]2/C=C(C)/C=C/[C@@H](C)[C@H]([C@H](C)[C@H](O)[C@@H](C)NC(C)=O)OC(=O)/C=C/C=C(C)\C=C\[C@]2(C)C1,0.00243 µM and 0.0045 µM,
O=C1c2ccccc2-c2c1c1ccccc1c(=O)n2CCCNCCCn1ccnc1,2.61 µM,9.84
CC1=C(C(=O)Nc2ccccc2C)C(c2ccc(Cl)c(Cl)c2)C(C(=O)Nc2ccccc2C)=C(C)N1,,> 100
ClCc1cccc(Cn2cnc3c(NC45CC6CC(CC(C6)C4)C5)ncnc32)c1,17.4 µM,43.1
O=c1c2cc(Cl)ccc2oc2ccc(OCCCCCN3CCCCC3)cc12,7.44 µM,14
Cc1cc(I)cc(CN(C)CCCN2CCSCC2)c1O,30.6 µM,> 100
Cc1[nH]c2ccccc2c1C1Cc2ccccc2N1C(=O)/C=C\C(=O)O (configuration not stated),,> 100
O=C1c2ccccc2C(=O)N1CCCSc1ccccc1,,> 100
CCOC(=O)Nc1nc2ccc(Cn3cccc3)cc2[nH]1,,2.11
COc1cc(Nc2nccc(Nc3ccc4c(C)[nH]nc4c3)n2)cc(OC)c1OC,0.486 µM,3.22
COc1ccc(/C=N\NC(=O)CN2CCN(c3cc4c(cc3F)c(=O)c(C(=O)N/N=C/c3ccc(OC)c(OC)c3)cn4C3CC3)CC2)cc1OC,1.56 µM,3.49

# Test system: M14 melanoma
# Assay: NCI tumour cell line growth inhibition, 48 h
SMILES,GI50,TGI [µM]
O=S(=O)(NC1=NCCN1C(=S)SN1CCn2c1nsc2=S)c1ccc(Br)cc1,68.8 µM,> 100
CC(=O)N[C@H]1C=C[C@@H]2/C=C(C)/C=C/[C@@H](C)[C@H]([C@H](C)[C@H](O)[C@@H](C)NC(C)=O)OC(=O)/C=C/C=C(C)\C=C\[C@]2(C)C1,0.00734 µM and 0.0045 µM,
O=C1c2ccccc2-c2c1c1ccccc1c(=O)n2CCCNCCCn1ccnc1,0.51 µM,1.13
CC1=C(C(=O)Nc2ccccc2C)C(c2ccc(Cl)c(Cl)c2)C(C(=O)Nc2ccccc2C)=C(C)N1,,35.3
ClCc1cccc(Cn2cnc3c(NC45CC6CC(CC(C6)C4)C5)ncnc32)c1,12.1 µM,27.6
O=c1c2cc(Cl)ccc2oc2ccc(OCCCCCN3CCCCC3)cc12,1.17 µM,2.84
Cc1cc(I)cc(CN(C)CCCN2CCSCC2)c1O,17.3 µM,33.2
Cc1[nH]c2ccccc2c1C1Cc2ccccc2N1C(=O)/C=C\C(=O)O (configuration not stated),,> 100
O=C1c2ccccc2C(=O)N1CCCSc1ccccc1,,> 100
CCOC(=O)Nc1nc2ccc(Cn3cccc3)cc2[nH]1,,> 100
COc1cc(Nc2nccc(Nc3ccc4c(C)[nH]nc4c3)n2)cc(OC)c1OC,1.35 µM,5.37
COc1ccc(/C=N\NC(=O)CN2CCN(c3cc4c(cc3F)c(=O)c(C(=O)N/N=C/c3ccc(OC)c(OC)c3)cn4C3CC3)CC2)cc1OC,3.53 µM,11.9

# Test system: HT29 colon
# Assay: NCI tumour cell line growth inhibition, 48 h
SMILES,GI50,TGI
O=S(=O)(NC1=NCCN1C(=S)SN1CCn2c1nsc2=S)c1ccc(Br)cc1,42.5 µM,> 100 µM
CC(=O)N[C@H]1C=C[C@@H]2/C=C(C)/C=C/[C@@H](C)[C@H]([C@H](C)[C@H](O)[C@@H](C)NC(C)=O)OC(=O)/C=C/C=C(C)\C=C\[C@]2(C)C1,0.00384 µM and 0.0045 µM,4.65 µM and > 45 µM
O=C1c2ccccc2-c2c1c1ccccc1c(=O)n2CCCNCCCn1ccnc1,1.21 µM,> 33.4 µM
CC1=C(C(=O)Nc2ccccc2C)C(c2ccc(Cl)c(Cl)c2)C(C(=O)Nc2ccccc2C)=C(C)N1,,57.7 µM
ClCc1cccc(Cn2cnc3c(NC45CC6CC(CC(C6)C4)C5)ncnc32)c1,23.9 µM,> 100 µM
O=c1c2cc(Cl)ccc2oc2ccc(OCCCCCN3CCCCC3)cc12,1.27 µM,3.31 µM
Cc1cc(I)cc(CN(C)CCCN2CCSCC2)c1O,18.8 µM,43.1 µM
Cc1[nH]c2ccccc2c1C1Cc2ccccc2N1C(=O)/C=C\C(=O)O (configuration not stated),,> 100 µM
O=C1c2ccccc2C(=O)N1CCCSc1ccccc1,,> 100 µM
CCOC(=O)Nc1nc2ccc(Cn3cccc3)cc2[nH]1,,> 56.3 µM
COc1cc(Nc2nccc(Nc3ccc4c(C)[nH]nc4c3)n2)cc(OC)c1OC,0.916 µM,4.49 µM
COc1ccc(/C=N\NC(=O)CN2CCN(c3cc4c(cc3F)c(=O)c(C(=O)N/N=C/c3ccc(OC)c(OC)c3)cn4C3CC3)CC2)cc1OC,3.46 µM,> 100 µM

# Test system: RXF 393 renal
# Assay: NCI tumour cell line growth inhibition, 48 h
SMILES,GI50,TGI [µM]
O=S(=O)(NC1=NCCN1C(=S)SN1CCn2c1nsc2=S)c1ccc(Br)cc1,17.8 µM,51.4
CC(=O)N[C@H]1C=C[C@@H]2/C=C(C)/C=C/[C@@H](C)[C@H]([C@H](C)[C@H](O)[C@@H](C)NC(C)=O)OC(=O)/C=C/C=C(C)\C=C\[C@]2(C)C1,0.0103 µM and 0.0045 µM,
O=C1c2ccccc2-c2c1c1ccccc1c(=O)n2CCCNCCCn1ccnc1,1.48 µM,4.31
CC1=C(C(=O)Nc2ccccc2C)C(c2ccc(Cl)c(Cl)c2)C(C(=O)Nc2ccccc2C)=C(C)N1,,41.6
ClCc1cccc(Cn2cnc3c(NC45CC6CC(CC(C6)C4)C5)ncnc32)c1,11.4 µM,36.7
O=c1c2cc(Cl)ccc2oc2ccc(OCCCCCN3CCCCC3)cc12,1.86 µM,7.2
Cc1cc(I)cc(CN(C)CCCN2CCSCC2)c1O,17.2 µM,39
Cc1[nH]c2ccccc2c1C1Cc2ccccc2N1C(=O)/C=C\C(=O)O (configuration not stated),,71.3
O=C1c2ccccc2C(=O)N1CCCSc1ccccc1,,> 100
CCOC(=O)Nc1nc2ccc(Cn3cccc3)cc2[nH]1,,> 22.3
COc1cc(Nc2nccc(Nc3ccc4c(C)[nH]nc4c3)n2)cc(OC)c1OC,0.683 µM,3.21
COc1ccc(/C=N\NC(=O)CN2CCN(c3cc4c(cc3F)c(=O)c(C(=O)N/N=C/c3ccc(OC)c(OC)c3)cn4C3CC3)CC2)cc1OC,3.79 µM,15.2
